Several values for one entry are separate records, joined by “and”; a condition that tells them apart may be missing. Equal entries are not always repeated.

One test deals with T1, human Kv 1.5 (Homo sapiens, UniProt P22460).
T1 construct: expressed in transfected cells; host or cells: mouse L-929 fibroblasts stably expressing human Kv1.5
T1 sequence (P22460 whole entry): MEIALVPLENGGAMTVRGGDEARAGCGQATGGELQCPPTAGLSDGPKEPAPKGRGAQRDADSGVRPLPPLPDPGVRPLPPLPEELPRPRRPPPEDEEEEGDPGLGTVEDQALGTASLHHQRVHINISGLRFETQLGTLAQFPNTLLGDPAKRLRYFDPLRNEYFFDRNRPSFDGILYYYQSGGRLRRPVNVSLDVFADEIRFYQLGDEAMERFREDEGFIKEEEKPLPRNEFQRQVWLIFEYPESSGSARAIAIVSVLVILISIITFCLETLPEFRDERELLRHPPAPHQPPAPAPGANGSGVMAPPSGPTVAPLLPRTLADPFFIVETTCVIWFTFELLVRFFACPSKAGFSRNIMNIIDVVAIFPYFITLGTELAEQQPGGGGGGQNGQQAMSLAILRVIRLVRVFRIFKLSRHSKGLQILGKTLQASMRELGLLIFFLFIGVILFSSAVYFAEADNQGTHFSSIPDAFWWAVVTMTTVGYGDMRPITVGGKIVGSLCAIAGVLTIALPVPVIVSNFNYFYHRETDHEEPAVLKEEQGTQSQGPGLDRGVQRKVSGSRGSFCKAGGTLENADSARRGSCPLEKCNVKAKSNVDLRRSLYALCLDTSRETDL
The experiment in a line: Block of IKur current in patch clamped L-929 cells stably expressing human Kv1.5. It is filed as cell-based. Particulars: 0.3 μM; patch clamped mammalian L-929 cells expressing human Kv1.5 (IKur). The text has this: Synders, D. J. et al., “A rapidly activating and slowly inactivating potassium channel cloned from human heart: functional analysis after stable mammalian cell culture expression”, J. Gen. Physiol., 101:513-543 (1993). […]
On the technique in general: In patch-clamp work, channel activity is measured electrically.
Consider `NC(=O)c1cncc(-c2cc3cccc(-c4ccccc4)c3c(NCc3ccccn3)n2)c1` [Example 9, 5-(8-Phenyl-1-((pyridin-2-ylmethyl)amino)isoquinolin-3-yl)nicotinamide], for which the “KV1_5% Inh L929 @0.3 μM” value was 81.32% and 50.45%.

The test is the same for the next values; noted with them: L929, 0.3 μM; patch clamped mammalian L-929 cells expressing human Kv1.5 (IKur); read-out: KV1_5% Inh L929 @0.3 μM.
`NS(=O)(=O)c1ccc(-c2c(Cl)nc(NCc3ccccn3)c3c(-c4ccccc4)cccc23)cc1` [Example 55, 4-(3-chloro-8-phenyl-1-(pyridin-2-ylmethylamino)isoquinolin-4-yl)benzenesulfonamide]: the inhibition at 0.3 µM was 97.6%.

On to `CNS(=O)(=O)c1cccc(-c2cc3cccc(-c4ccccc4)c3c(NCc3ccccn3)n2)c1` [Example 34, N-methyl-3-(8-phenyl-1-(pyridin-2-ylmethylamino)isoquinolin-3-yl)benzenesulfonamide], for which the inhibition at 0.3 µM was 93.5%.

For `NS(=O)(=O)c1cncc(-c2cc3cccc(-c4ccccc4)c3c(NCc3ncccc3F)n2)c1` [Example 22, 5-(1-((3-fluoropyridin-2-yl)methylamino)-8-phenylisoquinolin-3-yl)pyridine-3-sulfonamide], the inhibition at 0.3 µM was 94%.

Consider `CC(C)CNc1nc(-c2cncc(S(N)(=O)=O)c2)cc2cccc(-c3ccccc3)c12` [Example 24, 5-(1-(isobutylamino)-8-phenylisoquinolin-3-yl)pyridine-3-sulfonamide], for which the inhibition at 0.3 µM is 41.5%.

In the case of `NC(=O)Nc1cncc(-c2cc3cccc(-c4ccccc4)c3c(NCc3ccccn3)n2)c1` [Example 4, 1-(5-(8-Phenyl-1-(pyridin-2-ylmethylamino)isoquinolin-3-yl)pyridin-3-yl)urea], the inhibition at 0.3 µM was 88.7%.

Take `NS(=O)(=O)c1cncc(-c2c(Cl)nc(NCc3ccccn3)c3c(-c4ccccc4)cccc23)c1` [Example 10, 5-(3-Chloro-8-phenyl-1-(pyridin-2-ylmethylamino)isoquinolin-4-yl)pyridine-3-sulfonamide]: the inhibition at 0.3 µM was found to be 99%.

With `NS(=O)(=O)c1cncc(-c2cc3cccc(-c4ccccc4)c3c(NCc3ccccc3Cl)n2)c1` [Example 37, 5-(1-(2-chlorobenzylamino)-8-phenylisoquinolin-3-yl)pyridine-3-sulfonamide], the inhibition at 0.3 µM turned out to be 34.2%.

On to `NS(=O)(=O)c1cncc(-c2c(Cl)nc(NCC3CCOCC3)c3c(-c4ccccc4)cccc23)c1` [Example 29, 5-(3-chloro-8-phenyl-1-((tetrahydro-2H-pyran-4-yl)methylamino)isoquinolin-4-yl)pyridine-3-sulfonamide], for which the inhibition at 0.3 µM is 88.4%.

With `Cc1cnc(CNc2nc(-c3cncc(S(N)(=O)=O)c3)cc3cccc(-c4ccccc4)c23)cn1` [Example 74, 5-(1-((5-methylpyrazin-2-yl)methylamino)-8-phenylisoquinolin-3-yl)pyridine-3-sulfonamide], the inhibition at 0.3 µM stood at 79.5%.

On to `NS(=O)(=O)c1cncc(-c2cnc(NCC3CCCCO3)c3c(-c4ccccc4)cccc23)c1` (centres unmarked) [Example 82, 5-(8-phenyl-1-((tetrahydro-2H-pyran-2-yl)methylamino)isoquinolin-4-yl)pyridine-3-sulfonamide], for which the inhibition at 0.3 µM turned out to be 85%.

As to `NS(=O)(=O)c1cncc(-c2c(Cl)nc(NCc3c(F)cccc3F)c3c(-c4ccccc4)cccc23)c1` [Example 27, 5-(3-chloro-1-(2,6-difluorobenzylamino)-8-phenylisoquinolin-4-yl)pyridine-3-sulfonamide], the inhibition at 0.3 µM turned out to be 93.6%.

For the compound `Cc1n[nH]c(C)c1-c1cc2cccc(-c3ccccc3)c2c(NCc2ccccn2)n1` [Example 20, 3-(3,5-dimethyl-1H-pyrazol-4-yl)-8-phenyl-N-(pyridin-2-ylmethyl)isoquinolin-1-amine], the inhibition at 0.3 µM was found to be 64.5%.

`N#Cc1nc(NCc2ccccc2)c2c(-c3ccccc3)cccc2c1-c1cncc(S(N)(=O)=O)c1` [Example 16, 5-(1-(Benzylamino)-3-cyano-8-phenylisoquinolin-4-yl)pyridine-3-sulfonamide]: the inhibition at 0.3 µM is 88.6%.

With `N#Cc1ccc(-c2cc3cccc(-c4ccccc4)c3c(NCc3ccccn3)n2)cc1` [Example 40, 4-(8-phenyl-1-(pyridin-2-ylmethylamino)isoquinolin-3-yl)benzonitrile], the inhibition at 0.3 µM turned out to be 92.3%.

On to `Nc1ccccc1-c1cc2cccc(-c3ccccc3)c2c(NCc2ccccn2)n1` [Example 49, 3-(2-aminophenyl)-8-phenyl-N-(pyridin-2-ylmethyl)isoquinolin-1-amine], for which the inhibition at 0.3 µM was 52.2%.

For the compound `NS(=O)(=O)c1cncc(-c2cnc(NCc3ccccn3)c3c(-c4ccccc4)cccc23)c1` [Example 11, 5-(8-Phenyl-1-(pyridin-2-ylmethylamino)isoquinolin-4-yl)pyridine-3-sulfonamide], the inhibition at 0.3 µM amounted to 98.9%.

With `NS(=O)(=O)c1cncc(-c2cc3cccc(-c4ccccc4)c3c(NCCOc3ccccc3)n2)c1` [Example 52, 5-(1-(2-phenoxyethylamino)-8-phenylisoquinolin-3-yl)pyridine-3-sulfonamide], the inhibition at 0.3 µM is 55.8%.

In the case of `NS(=O)(=O)c1cncc(-c2c(Cl)nc(NCc3ccccc3)c3c(-c4ccccc4)cccc23)c1` [Example 75, 5-(1-(benzylamino)-3-chloro-8-phenylisoquinolin-4-yl)pyridine-3-sulfonamide], the inhibition at 0.3 µM was found to be 97.3%.

In the case of `Nc1cncc(-c2cc3cccc(-c4ccccc4)c3c(NCc3ccccn3)n2)c1` [Example 2, 3-(5-Aminopyridin-3-yl)-8-phenyl-N-(pyridin-2-ylmethyl)isoquinolin-1-amine], the inhibition at 0.3 µM was determined as 66.2%.

For the compound `NC(=O)CC(=O)Nc1cccc(-c2c(Cl)nc(NCc3ccccn3)c3c(-c4ccccc4)cccc23)c1` [Example 13, N1-(3-(3-Chloro-8-phenyl-1-(pyridin-2-ylmethylamino)isoquinolin-4-yl)phenyl)malonamide], the inhibition at 0.3 µM stood at 97.7%.

Consider `NS(=O)(=O)c1cncc(-c2cc3cccc(-c4ccc(F)cc4)c3c(NCc3ccccn3)n2)c1` [Example 21, 5-(8-(4-fluorophenyl)-1-(pyridin-2-ylmethylamino)isoquinolin-3-yl)pyridine-3-sulfonamide], for which the inhibition at 0.3 µM stood at 50.6%.

`CS(=O)(=O)Nc1cncc(-c2c(Cl)nc(NCc3ccccn3)c3c(-c4ccccc4)cccc23)c1` [Example 47, N-(5-(3-chloro-8-phenyl-1-(pyridin-2-ylmethylamino)isoquinolin-4-yl)pyridin-3-yl)methanesulfonamide]: the inhibition at 0.3 µM came out at 98.1%.

Regarding `COc1cccc(CNc2nc(-c3cncc(S(N)(=O)=O)c3)cc3cccc(-c4ccccc4)c23)c1` [Example 54, 5-(1-(3-methoxybenzylamino)-8-phenylisoquinolin-3-yl)pyridine-3-sulfonamide], the inhibition at 0.3 µM was 82.4%.

In the case of `CC(C)C(Nc1nc(Cl)c(-c2cncc(S(N)(=O)=O)c2)c2cccc(-c3ccccc3)c12)c1ccccn1` (centres unmarked) [Example 80, 5-(3-chloro-1-(2-methyl-1-(pyridin-2-yl)propylamino)-8-phenylisoquinolin-4-yl)pyridine-3-sulfonamide], the inhibition at 0.3 µM was found to be 92.5%.

As for `NC(=O)c1cccc(-c2c(Cl)nc(NCc3ccccn3)c3c(-c4ccccc4)cccc23)c1` [Example 66, 3-(3-chloro-8-phenyl-1-(pyridin-2-ylmethylamino)isoquinolin-4-yl)benzamide], the inhibition at 0.3 µM stood at 99.3%.

In the case of `NC(=O)CS(=O)(=O)c1cccc(-c2cc3cccc(-c4ccccc4)c3c(NCc3ccccn3)n2)c1` [Example 7, 2-(3-(8-Phenyl-1-(pyridin-2-ylmethylamino)isoquinolin-3-yl)phenylsulfonyl)acetamide], the inhibition at 0.3 µM came out at 34.8%.

Turning to `NS(=O)(=O)c1cncc(-c2cc3cccc(-c4ccccc4)c3c(NCc3cccc(Cl)c3Cl)n2)c1` [Example 43, 5-(1-(2,3-dichlorobenzylamino)-8-phenylisoquinolin-3-yl)pyridine-3-sulfonamide], the inhibition at 0.3 µM is 16.3%.

Turning to `Cc1cc(C)cc(CNc2nc(-c3cncc(S(N)(=O)=O)c3)cc3cccc(-c4ccccc4)c23)c1` [Example 53, 5-(1-(3,5-dimethylbenzylamino)-8-phenylisoquinolin-3-yl)pyridine-3-sulfonamide], the inhibition at 0.3 µM was 40.1%.

As to `c1ccc(-c2cccc3cc(-c4cc[nH]n4)nc(NCc4ccccn4)c23)cc1` [Example 23, 8-phenyl-3-(1H-pyrazol-3-yl)-N-(pyridin-2-ylmethyl)isoquinolin-1-amine], the inhibition at 0.3 µM was determined as 80.2%.

Regarding `O=C(Nc1cccc(-c2cc3cccc(-c4ccccc4)c3c(NCc3ccccn3)n2)c1)N1CCOCC1` [Example 6, N-(3-(8-Phenyl-1-(pyridin-2-ylmethylamino)isoquinolin-3-yl)phenyl)morpholine-4-carboxamide], the inhibition at 0.3 µM was 92.2%.

On to `O=C(O)c1cncc(-c2c(Cl)nc(NCc3ccccn3)c3c(-c4ccccc4)cccc23)c1` [Example 12, 5-(3-Chloro-8-phenyl-1-(pyridin-2-ylmethylamino)isoquinolin-4-yl)nicotinic acid], for which the inhibition at 0.3 µM worked out at 52.3%.

As to `CS(=O)(=O)Nc1cccc(-c2c(Cl)nc(NCc3ccccn3)c3c(-c4ccccc4)cccc23)c1` [Example 70, N-(3-(3-chloro-8-phenyl-1-(pyridin-2-ylmethylamino)isoquinolin-4-yl)phenyl)methanesulfonamide], the inhibition at 0.3 µM stood at 95.7%.

Regarding `CC(Nc1nc(Cl)c(-c2cncc(S(N)(=O)=O)c2)c2cccc(-c3ccccc3)c12)c1ccccn1` (centres unmarked) [Example 26, 5-(3-chloro-8-phenyl-1-(1-(pyridin-2-yl)ethylamino)isoquinolin-4-yl)pyridine-3-sulfonamide], the inhibition at 0.3 µM was 98.8%.

Turning to `NS(=O)(=O)c1cncc(-c2cc3cccc(-c4ccccc4)c3c(NCc3ccc(F)cc3F)n2)c1` [Example 50, 5-(1-(2,4-difluorobenzylamino)-8-phenylisoquinolin-3-yl)pyridine-3-sulfonamide], the inhibition at 0.3 µM was found to be 54.1%.
